Results reported in patent publication US20140378460A1, “COMPOSITIONS AND METHODS FOR TREATING NEURODEGENERATIVE DISEASE” (COGNITION THERAPEUTICS, INC., priority 2011, published 2014).
“Also recorded” adds a separate entry of the source. Read-outs that look alike come from different tables or passages of the source.

Key:
PGP = PGP (Homo sapiens, UniProt P08183); assay: PGP activity; type: in vitro ADME
hERG = hERG (Homo sapiens, UniProt Q12809); assay: hERG inhibition; settings: 100 nM
[1] = test system: Abeta oligomer-induced membrane trafficking deficits in primary hippocampal neurons; assay: Membrane trafficking/exocytosis (MTT) assay; type: cell-based, rat; settings: for EC50: Rattus norvegicus, Hippocampal neuron; for Effect on membrane trafficking when dosed alone (words): absence of Abeta oligomers; for Effect against human Alzheimer's patient-derived Abeta oligomers (words): oligomers isolated from AD patient brains
sigma-2 receptor = target: T1, sigma-2 receptor (Rattus norvegicus, UniProt Q5U3Y7); assay: Competitive Radioligand Binding Assay 2, sigma-2, rat liver membrane homogenates; parameters: conducted using rat liver membrane homogenates; from tissue; host or cells: rat liver membrane homogenates; settings: read-out: Ki at sigma-2 receptors
T1 sequence (Q5U3Y7 1-176): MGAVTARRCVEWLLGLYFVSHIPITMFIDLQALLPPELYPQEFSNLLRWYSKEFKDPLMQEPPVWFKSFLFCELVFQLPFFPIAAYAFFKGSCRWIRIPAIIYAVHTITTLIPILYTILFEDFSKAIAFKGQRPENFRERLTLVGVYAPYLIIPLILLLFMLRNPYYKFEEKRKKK
Protocol: Test compounds were dissolved in N,N-Dimethylformamide (DMF), dimethyl sulfoxide (DMSO) or ethanol and then diluted in 50 mM Tris-HCl pH 7.4 buffer containing 150 mM NaCl and 100 mM EDTA. Membrane homogenates were made from guinea pig brain for sigma-1 binding assay and rat liver for sigma-2 binding assay. Membrane homogenates were diluted with 50 mM Tris-HCl buffer, pH 8.0 and incubated at 25° C. in a total volume of 150 uL in 96 well plates with the radioligand and test compounds with concentrations ranging from 0.1 nM to 10 uM. After incubation was completed, the reactions were terminated by the addition of 150 uL of ice-cold wash buffer (10 mM Tris HCl, 150 mM NaCl, pH 7.4) using a 96 channel transfer pipette (Fisher Scientific, Pittsburgh, Pa.) and the samples harvested and filtered rapidly through 96 well fiber glass filter plate (Millipore, Billerica, Mass.) that had been presoaked with 100 uL of 50 mM Tris-HCl buffer. Each filter was washed four times with 200 uL of ice-cold wash buffer (10 mM Tris-HCl, 150 mM NaCl, pH 7.4).
The binding affinity, Ki values was calculated using the method of Cheng and Prusoff.

[2] = test system: Abeta oligomer binding to primary neurons; assay: Abeta 1-42 oligomer binding assay; type: cell-based, rat
Protocol: In this assay, Abeta oligomers were brought in contact with mature primary neurons in culture and their binding was determined by immunohistochemistry (anti-Abeta antibody) and quantified by image processing. The amount of Abeta in neuronal dendrites is assessed by counting the number of labeled puncta on the neuritis. […] This labeling is associated with synapses, co-localizing with the post-synaptic scaffold protein PSD-95 (Lacor et al., '04). […] The number of synapses can also be quantified in this assay by immunofluorochemistry. Similar procedures for binding assays can be found in the literature. […] Review.
Primary hippocampal neuronal culture was established as in the membrane trafficking assay above. […] Pretreatment with compounds to be tested lasted for 1 hr and addition of Abeta oligomers or no oligomer (vehicle alone) in a final concentration of 70 ul was followed by incubation for an additional 23 hrs.
The plates were then washed 3× with PBS for 5 min each. The plates were blocked at RT for 1 hr in 5% goat serum and 0.5% Triton X-100 in PBS. […] Primary antibodies were incubated overnight at 4° C. The plates were then washed 3× with PBS for 5 min each. […] Secondary antibodies were incubated at RT for 1 hr. The plates were washed once with PBS. DAPI (4′,6-diamidino-2-phenylindole, Invitrogen) was then applied at 0.03 ug/ul and incubated at RT for 5 min, then washed with PBS.

[3] = test system: Abeta oligomer-induced memory deficits in wt C57BL/6 mice; assay: Contextual fear conditioning, intrahippocampal Abeta oligomers; type: in vivo, mouse; settings: before oligomers
Protocol: Several pharmaceutical companies use this same model in their discovery efforts. Contextual fear conditioning is an accepted model of associative memory formation which correlates to human cognitive function and specifically the creation of new memories (Delgado '06). Abeta oligomers are injected into the hippocampus of wild-type animals immediately before conditioning training and memory is assessed via freezing behavior after 24 hours. See, for example, FIGS. 4 and 8. Details are provided in Example 9. […] This model system was chosen because intrahippocampal administration of oligomers allows rapid comparative assessment of compound activity and off-target toxicity. The results are shown graphically in FIG. 4.
Compound II was tested in an animal model of a memory-dependent behavioral task known as fear conditioning. The study protocol was designed based on published protocols (See e.g. Puzzo D, Privitera L, Leznik E, Fà M, Staniszewski A, Palmeri A, Arancio O. Picomolar amyloid-beta positively modulates synaptic plasticity and memory in hippocampus. J. Neurosci. 2008 Dec. 31; 28(53):14537-45.). The formation of contextual memories is dependent upon the integrity of medial temporal lobe structures such as the hippocampus. […]

Chain of PGP (P08183 whole entry): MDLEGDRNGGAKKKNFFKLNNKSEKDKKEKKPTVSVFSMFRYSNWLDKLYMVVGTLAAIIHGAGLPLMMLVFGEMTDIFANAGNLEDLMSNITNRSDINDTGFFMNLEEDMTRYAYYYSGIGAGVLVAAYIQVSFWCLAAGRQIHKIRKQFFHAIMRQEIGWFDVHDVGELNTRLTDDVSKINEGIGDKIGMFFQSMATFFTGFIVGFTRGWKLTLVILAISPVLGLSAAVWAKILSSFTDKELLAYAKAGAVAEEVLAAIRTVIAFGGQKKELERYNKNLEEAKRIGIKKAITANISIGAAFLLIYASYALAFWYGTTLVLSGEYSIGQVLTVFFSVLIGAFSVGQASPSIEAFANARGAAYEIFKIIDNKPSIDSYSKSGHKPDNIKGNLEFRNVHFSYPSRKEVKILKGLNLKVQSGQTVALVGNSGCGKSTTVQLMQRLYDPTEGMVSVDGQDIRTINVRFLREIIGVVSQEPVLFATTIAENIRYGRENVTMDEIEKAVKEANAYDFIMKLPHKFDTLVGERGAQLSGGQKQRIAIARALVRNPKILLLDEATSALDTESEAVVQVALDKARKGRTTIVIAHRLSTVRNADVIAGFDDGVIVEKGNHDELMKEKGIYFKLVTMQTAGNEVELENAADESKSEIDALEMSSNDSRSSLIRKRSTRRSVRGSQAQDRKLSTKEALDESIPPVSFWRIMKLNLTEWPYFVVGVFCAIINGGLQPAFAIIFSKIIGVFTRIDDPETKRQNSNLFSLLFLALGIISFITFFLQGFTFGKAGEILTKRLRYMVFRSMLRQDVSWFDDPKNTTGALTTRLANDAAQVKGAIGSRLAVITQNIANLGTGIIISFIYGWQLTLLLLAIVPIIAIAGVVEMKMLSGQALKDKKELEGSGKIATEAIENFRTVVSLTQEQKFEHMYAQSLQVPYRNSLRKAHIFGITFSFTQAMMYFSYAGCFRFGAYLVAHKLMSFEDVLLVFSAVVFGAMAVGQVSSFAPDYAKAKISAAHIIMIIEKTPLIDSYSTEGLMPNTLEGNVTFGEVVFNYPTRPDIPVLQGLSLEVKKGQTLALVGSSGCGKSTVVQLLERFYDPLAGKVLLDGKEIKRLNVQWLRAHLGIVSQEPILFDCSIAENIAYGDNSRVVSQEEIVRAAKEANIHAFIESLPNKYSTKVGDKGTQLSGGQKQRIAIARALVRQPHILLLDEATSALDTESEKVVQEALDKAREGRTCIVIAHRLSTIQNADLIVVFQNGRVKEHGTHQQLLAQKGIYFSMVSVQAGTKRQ
Chain of hERG (Q12809 whole entry): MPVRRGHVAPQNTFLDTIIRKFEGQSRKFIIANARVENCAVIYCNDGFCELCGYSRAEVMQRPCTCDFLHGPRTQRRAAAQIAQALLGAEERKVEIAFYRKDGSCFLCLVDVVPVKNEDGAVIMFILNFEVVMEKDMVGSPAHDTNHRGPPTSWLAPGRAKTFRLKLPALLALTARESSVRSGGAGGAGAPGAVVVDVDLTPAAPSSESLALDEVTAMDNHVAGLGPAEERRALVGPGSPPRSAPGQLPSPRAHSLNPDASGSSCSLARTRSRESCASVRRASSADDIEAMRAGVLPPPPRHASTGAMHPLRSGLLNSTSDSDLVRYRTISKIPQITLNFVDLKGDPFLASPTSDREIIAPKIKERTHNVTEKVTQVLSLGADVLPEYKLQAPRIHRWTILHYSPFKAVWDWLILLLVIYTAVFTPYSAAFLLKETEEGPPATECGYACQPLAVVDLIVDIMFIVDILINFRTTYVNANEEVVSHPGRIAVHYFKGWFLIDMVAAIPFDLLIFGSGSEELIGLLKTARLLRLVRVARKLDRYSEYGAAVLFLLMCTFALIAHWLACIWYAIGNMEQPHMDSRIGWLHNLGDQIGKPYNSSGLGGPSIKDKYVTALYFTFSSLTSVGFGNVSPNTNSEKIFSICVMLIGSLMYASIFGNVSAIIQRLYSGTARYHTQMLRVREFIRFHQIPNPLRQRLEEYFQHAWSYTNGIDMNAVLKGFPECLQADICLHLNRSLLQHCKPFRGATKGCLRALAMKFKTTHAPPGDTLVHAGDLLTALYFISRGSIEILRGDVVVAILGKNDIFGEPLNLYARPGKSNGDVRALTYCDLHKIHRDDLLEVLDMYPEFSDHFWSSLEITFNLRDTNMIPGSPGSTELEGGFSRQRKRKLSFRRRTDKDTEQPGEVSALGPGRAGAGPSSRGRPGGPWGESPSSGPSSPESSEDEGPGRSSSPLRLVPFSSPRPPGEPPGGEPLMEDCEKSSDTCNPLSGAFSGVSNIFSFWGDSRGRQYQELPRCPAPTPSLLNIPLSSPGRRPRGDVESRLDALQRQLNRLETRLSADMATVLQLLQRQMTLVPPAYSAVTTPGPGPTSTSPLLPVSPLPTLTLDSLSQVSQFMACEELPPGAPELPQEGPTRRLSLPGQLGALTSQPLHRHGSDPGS

COc1cc(CCC(C)NCc2ccc(C(F)(F)F)cc2)ccc1O (centres unmarked) [Compound II]
IC50 (PGP): > 30 µM
hERG inhibition (hERG): 24%
Effect on Abeta oligomer trafficking deficits over the concentrations tested [1]: blocks oligomer-induced trafficking deficits at all concentrations tested
Max Inhibition of Abeta (%) [1]: 68%
Ki ([1]; Km for Abeta = 0.4 uM, assay concentr. 3 μM total Abeta, read-out: Calculated Ki): 0.26 µM
EC50 ([1]; Table 11A, read-out: Block Aβ-induced membrane trafficking deficits EC50): 2.2 µM
EC50 ([1]; Table 11B, read-out: Inhibition Abeta oligomer-induced Membrane Trafficking EC50): 2.2 µM
EC50 ([1]; Table 12, read-out: EC50): 2.2 µM
EC50 ([1]; added after oligomers (treatment mode), read-out: EC50 blocking oligomer effects): 4.1 µM
EC50 ([1]; added before oligomers (prevention mode), read-out: EC50 blocking oligomer effects): 2.2 µM
Functional Neuronal Phenotype ([1]; Table 11B): Antagonist
Effect on membrane trafficking when dosed alone (words) [1]: no significant effect on membrane trafficking
Effect on membrane trafficking when dosed alone (words) ([1]; listed as compound II): does not affect membrane trafficking
Cpd alone at Ki ([1]; compound without Abeta oligomers): +1%
Max Inhib. of Abeta (Conc) ([1]; concentration in brackets): 85% (10)
Effect against human Alzheimer's patient-derived Abeta oligomers (words) [1]: completely eliminated
Effect against human Alzheimer's patient-derived Abeta oligomers (words) ([1]; listed as compound II): rightward shift; also recorded: blocks the membrane trafficking deficits
Schild slope ([1]; synthetic Abeta oligomers): −0.75
Assay effects in the absence of Aβ ([1]; trafficking or synapse number without Abeta oligomer): No
Ki (sigma-2 receptor): 0.0597 µM
Decrease of Abeta binding intensity (Abeta puncta) ([2]; FIG. 3D): 18%
Partial block of binding of Abeta oligomer ligand to neurons ([2]; imaging processing algorithm): about 25%
Effect on Abeta oligomer-induced memory deficits [3]: eliminated memory deficits; also recorded: completely blocked oligomer-mediated memory deficits at the 2 pmol dose
